Results from PubChem BioAssay (NCI).
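48-hour exposure; five concentrations; linearly interpolated endpoints. TGI: total growth inhibition.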

Key:
Experiment in all cases: NCI tumour cell line growth inhibition, 48 h
MCF7 breast = tested on: MCF7 breast
SK-OV-3 ovarian = tested on: SK-OV-3 ovarian
NCI-H23 lung = tested on: NCI-H23 lung
HCT-15 colon = tested on: HCT-15 colon
P388/ADR leukemia = tested on: P388/ADR leukemia
SNB-19 CNS = tested on: SNB-19 CNS
NCI/ADR-RES ovarian = tested on: NCI/ADR-RES ovarian
DLD-1 colon = tested on: DLD-1 colon
HOP-92 NSCLC = tested on: HOP-92 NSCLC
SF-295 CNS = tested on: SF-295 CNS
HT29 colon = tested on: HT29 colon
SF-268 CNS = tested on: SF-268 CNS
SNB-75 CNS = tested on: SNB-75 CNS
RXF 393 renal = tested on: RXF 393 renal
LOX IMVI melanoma = tested on: LOX IMVI melanoma
CCRF-CEM leukemia = tested on: CCRF-CEM leukemia
IGROV1 ovarian = tested on: IGROV1 ovarian
NCI-H522 lung = tested on: NCI-H522 lung
U251 CNS = tested on: U251 CNS
HCT-116 colon = tested on: HCT-116 colon
CAKI-1 renal = tested on: CAKI-1 renal
KM20L2 colon = tested on: KM20L2 colon
DMS 273 small cell lung = tested on: DMS 273 small cell lung
MALME-3M melanoma = tested on: MALME-3M melanoma
EKVX NSCLC = tested on: EKVX NSCLC
NCI-H226 lung = tested on: NCI-H226 lung
UO-31 renal = tested on: UO-31 renal
SK-MEL-28 melanoma = tested on: SK-MEL-28 melanoma
HOP-18 NSCLC = tested on: HOP-18 NSCLC
SN12K1 renal = tested on: SN12K1 renal
HL-60(TB) leukemia = tested on: HL-60(TB) leukemia
XF 498 CNS = tested on: XF 498 CNS
SK-MEL-2 melanoma = tested on: SK-MEL-2 melanoma
SF-539 CNS = tested on: SF-539 CNS
OVCAR-4 ovarian = tested on: OVCAR-4 ovarian
HOP-62 NSCLC = tested on: HOP-62 NSCLC
DMS 114 small cell lung = tested on: DMS 114 small cell lung
A498 renal = tested on: A498 renal
NCI-H460 lung = tested on: NCI-H460 lung
UACC-62 melanoma = tested on: UACC-62 melanoma
M19-MEL melanoma = tested on: M19-MEL melanoma
KM12 colon = tested on: KM12 colon
K-562 leukemia = tested on: K-562 leukemia
MOLT-4 leukemia = tested on: MOLT-4 leukemia
A549 NSCLC = tested on: A549 NSCLC
UACC-257 melanoma = tested on: UACC-257 melanoma
SNB-78 CNS = tested on: SNB-78 CNS
P388 leukemia = tested on: P388 leukemia
SN12C renal = tested on: SN12C renal
RPMI-8226 leukemia = tested on: RPMI-8226 leukemia
OVCAR-8 ovarian = tested on: OVCAR-8 ovarian
HCC-2998 colon = tested on: HCC-2998 colon
SW-620 colon = tested on: SW-620 colon
OVCAR-5 ovarian = tested on: OVCAR-5 ovarian
OVCAR-3 ovarian = tested on: OVCAR-3 ovarian
COLO 205 colon = tested on: COLO 205 colon
SK-MEL-5 melanoma = tested on: SK-MEL-5 melanoma

CN1C(=O)c2ccccc2NC(=O)c2cnn(C)c21
TGI (MCF7 breast): > 100 µM
TGI (SK-OV-3 ovarian): > 100 µM
TGI (NCI-H23 lung): > 100 µM
TGI (HCT-15 colon): > 100 µM
TGI (P388/ADR leukemia): > 100 µM
TGI (SNB-19 CNS): > 100 µM
TGI (NCI/ADR-RES ovarian): > 100 µM
TGI (DLD-1 colon): > 100 µM
TGI (HOP-92 NSCLC): > 100 µM
TGI (SF-295 CNS): > 100 µM
TGI (HT29 colon): > 100 µM
TGI (SF-268 CNS): > 100 µM
TGI (SNB-75 CNS): > 100 µM
TGI (RXF 393 renal): > 100 µM
TGI (LOX IMVI melanoma): > 100 µM
TGI (CCRF-CEM leukemia): > 100 µM
TGI (IGROV1 ovarian): > 100 µM
TGI (NCI-H522 lung): > 100 µM
TGI (U251 CNS): > 100 µM
TGI (HCT-116 colon): > 57.4 µM
TGI (CAKI-1 renal): > 100 µM
TGI (KM20L2 colon): > 100 µM
TGI (DMS 273 small cell lung): > 100 µM
TGI (MALME-3M melanoma): > 100 µM
TGI (EKVX NSCLC): > 100 µM
TGI (NCI-H226 lung): > 100 µM
TGI (UO-31 renal): > 100 µM
TGI (SK-MEL-28 melanoma): > 100 µM
TGI (HOP-18 NSCLC): > 100 µM
TGI (SN12K1 renal): > 100 µM
TGI (HL-60(TB) leukemia): > 100 µM
TGI (XF 498 CNS): > 100 µM
TGI (SK-MEL-2 melanoma): > 100 µM
TGI (SF-539 CNS): > 100 µM
TGI (OVCAR-4 ovarian): > 100 µM
TGI (HOP-62 NSCLC): > 100 µM
TGI (DMS 114 small cell lung): > 100 µM
TGI (A498 renal): > 100 µM
TGI (NCI-H460 lung): > 100 µM
TGI (UACC-62 melanoma): > 100 µM
TGI (M19-MEL melanoma): > 100 µM
TGI (KM12 colon): > 100 µM
TGI (K-562 leukemia): > 100 µM
TGI (MOLT-4 leukemia): > 100 µM
TGI (A549 NSCLC): > 100 µM
TGI (UACC-257 melanoma): > 100 µM
TGI (SNB-78 CNS): > 100 µM
TGI (P388 leukemia): > 100 µM
TGI (SN12C renal): > 100 µM
TGI (RPMI-8226 leukemia): > 100 µM
TGI (OVCAR-8 ovarian): > 100 µM
TGI (HCC-2998 colon): > 100 µM
TGI (SW-620 colon): > 100 µM
TGI (OVCAR-5 ovarian): > 100 µM
TGI (OVCAR-3 ovarian): > 100 µM
TGI (COLO 205 colon): > 100 µM
TGI (SK-MEL-5 melanoma): > 100 µM
